From patent publication US20090197960A1, “Method of Inhibiting Polyneuropathic Pain with 3-(2-Dimethylaminomethylcyclohexyl) Phenol” (Gruenenthal GmbH, priority 2008, published 2009)

Key:
[1] = tested on: pain in diabetic polyneuropathy; details: number of patients treated for one patient to experience more than 50% pain relief; cited from earlier work
[2] = tested on: pain in post-herpetic neuralgia; details: number of patients treated for one patient to experience more than 50% pain relief; cited from earlier work
[3] = tested on: cold allodynia in mononeuropathic pain; assay: Mononeuropathic pain model according to Bennett (ischial nerve ligatures), cold allodynia on cold metal plate at 4° C.; type: in vivo, Sprague Dawley rats
Method: (§1) Male Sprague Dawley rats (140-180 g, Janvier, France) were kept under standard conditions (06.00-18.00 light, 18.00-06.00 darkness; 20-24° C. room temperature, 35-70% relative humidity; tap water and standard feed (ad libitum)) in groups of five animals in Macrolon type 4 cages.
The investigation was carried out according to Bennett et al., Pain, 1988, 33, 87-107.
Under pentobarbital anaesthesia (Narcocen, 60 mg/kg i.p., Merial GmbH, Germany), four loose ligatures were placed unilaterally on the right ischial nerve. On the paw innervated by the damaged nerve, the animals developed hypersensitivity which, after one week's convalescence, was quantified over a period of approx. four weeks using a cold metal plate at 4° C. (cold allodynia). The animals were observed on this plate for a period of 2 min. and the number of withdrawal responses by the damaged paw was measured. The action of the substance, relative to the preliminary value before administration of the substance, was determined over a period of one hour at four different times (15, 30, 45, 60 min after administration). The inhibition of cold allodynia at the individual measurement times was stated in percent relative to the individual pretest (% MPE), with the pretest corresponding to 0% MPE and complete inhibition (0 withdrawal responses per 2 min) to 100% MPE. Group size was n=10. The significance of a substance's action was determined on the basis of the percentage inhibition values relative to the vehicle group by bifactorial analysis of variance and post hoc Bonferroni analysis, the ED50 value by linear regression analysis for the individual measurement points or the area under the curve (AUC).

[4] = tested on: cold allodynia in polyneuropathic pain; assay: Polyneuropathic pain model according to Authier (vincristine-induced), cold allodynia with acetone drop; type: in vivo, Sprague Dawley rats
Method: as §1
The investigation was carried out according to Authier et al., Neuroreport, 1999, 10, 965-8.
Three days after the final vincristine treatment, the animals had developed hypersensitivity to cold (cold allodynia) which continued over a period of three weeks. For testing, the animals were placed under a plastic cover on a grating and, after habituation, cold allodynia was quantified. To this end, a drop of acetone (10 μl) was carefully applied onto a hind paw with a syringe and a thin plastic tube. The number of induced withdrawal responses (shaking, stamping or licking) was recorded over a period of 30 sec. The cumulative number from 5 stimulations (at 5 min intervals from one another) was determined before and at different times after administration of the substance or the vehicle. The percentage inhibition value (% MPE) was determined in comparison with the particular pretest (0% MPE) and with the weekly vehicle control group (100% MPE=0 withdrawal responses). The size of the group was usually n=10. The significance of a substance's action was determined on the basis of the percentage inhibition value relative to the vehicle group by means of bifactorial analysis of variance and post hoc Bonferroni analysis, the ED50 value by linear regression analysis for the individual measurement points.

For NCC1(CC(=O)O)CCCCC1 [Gabapentin], the “NNT (Numbers Needed to Treat)” value [1] is listed as 3.7 and the “NNT (Numbers Needed to Treat)” value [2] is listed as 3.2.
In the case of NC(=O)N1c2ccccc2C=Cc2ccccc21 [Carbamazepine], the “NNT (Numbers Needed to Treat)” value [1] is listed as 3.3.
In the case of COc1ccc2c3c1O[C@H]1C(=O)CC[C@@]4(O)[C@@H](C2)N(C)CC[C@]314 [Oxycodone], the “NNT (Numbers Needed to Treat)” value [2] is listed as 2.5.
In the case of CN(C)CCCN1c2ccccc2CCc2ccccc21 [Imipramine], the “NNT (Numbers Needed to Treat)” value [1] is given as 1.4.
In the case of COc1cc(CNC(=O)CCCC/C=C/C(C)C)ccc1O [Capsaicin], the “NNT (Numbers Needed to Treat)” value [1] is listed as 5.9 and the “NNT (Numbers Needed to Treat)” value [2] is listed as 5.3.
In the case of COc1cccc(C2(O)CCCCC2CN(C)C)c1 (stereo not shown) [Tramadol], the “NNT (Numbers Needed to Treat)” value [1] is given as 3.4.
For Cc1cccc(C)c1OCC(C)N (stereo not shown) [Mexiletine], the “NNT (Numbers Needed to Treat)” value [1] is given as 10.0.
In the case of N[C@@H](Cc1ccc(O)c(O)c1)C(=O)O [L-Dopa], the “NNT (Numbers Needed to Treat)” value [1] is listed as 3.4.
For CN(C)C[C@@H]1CCCC[C@H]1c1cccc(O)c1 [(1R,2R)-3-(2-Dimethylaminomethylcyclohexyl)phenol], the “inhibition of cold allodynia (in words)” value ([3]; 10-31.6 mg/kg i.p.) was “dose-dependent inhibition”, the maximum effect ([3]; 15 min after administration of 31.6 mg/kg) was 80 % MPE and the ED50 ([3]; Rattus norvegicus, ip, 0.5 h, 30 min after administration, i.p., mononeuropathic pain model, read-out: ED50 value (95% VB)) was 17.6 mg/kg. For the same compound, the “inhibition of cold allodynia, Mean” value ([3]; dose 10 (mg/kg i.p.), 15 min after administration) was 22.16 % MPE, the “inhibition of cold allodynia, Mean” value ([3]; dose 10 (mg/kg i.p.), 30 min after administration) was 20.93 % MPE and the “inhibition of cold allodynia, Mean” value ([3]; dose 10 (mg/kg i.p.), 45 min after administration) was 8.60 % MPE. For the same compound, the “inhibition of cold allodynia, Mean” value ([3]; dose 10 (mg/kg i.p.), 60 min after administration) was 9.23 % MPE, the “inhibition of cold allodynia, Mean” value ([3]; dose 21.5 (mg/kg i.p.), 15 min after administration) was 56.62 % MPE and the “inhibition of cold allodynia, Mean” value ([3]; dose 21.5 (mg/kg i.p.), 30 min after administration) was 61.06 % MPE. The “inhibition of cold allodynia, Mean” value ([3]; dose 21.5 (mg/kg i.p.), 45 min after administration) was 34.96 % MPE, the “inhibition of cold allodynia, Mean” value ([3]; dose 21.5 (mg/kg i.p.), 60 min after administration) was 16.33 % MPE and the “inhibition of cold allodynia, Mean” value ([3]; dose 31.6 (mg/kg i.p.), 15 min after administration) was 80.03 % MPE. For the same compound, the “inhibition of cold allodynia, Mean” value ([3]; dose 31.6 (mg/kg i.p.), 30 min after administration) was 79.15 % MPE, the “inhibition of cold allodynia, Mean” value ([3]; dose 31.6 (mg/kg i.p.), 45 min after administration) was 61.68 % MPE and the “inhibition of cold allodynia, Mean” value ([3]; dose 31.6 (mg/kg i.p.), 60 min after administration) was 21.18 % MPE. The “minimally active dose at which a statistically significant inhibition was obtained” value ([3]; i.p., mononeuropathic pain model) was 21.5 mg/kg, the “dose of significant inhibition, mononeuropathic versus polyneuropathic pain model” value ([4]; 21.5 mg/kg i.p. versus 4.64 mg/kg i.p.) was “more than four times higher” and the “inhibition of cold allodynia (in words)” value ([4]; 10-21.5 mg/kg i.p.) was “dose-dependent inhibition”. The maximum effect ([4]; 30 min after administration of 21.5 mg/kg) was 74 % MPE, the ED50 ([4]; Rattus norvegicus, ip, 0.5 h, 30 min after administration, i.p., polyneuropathic pain model, read-out: ED50 value (95% VB)) was 5.7 mg/kg and the “efficacy in polyneuropathic pain relative to mononeuropathic pain in an animal model” value ([4]; animal model) was “approx. four times greater”. The “inhibition of cold allodynia, Mean” value ([4]; dose 2.15 (mg/kg i.p.), 30 min) was 48.4 % MPE, the “inhibition of cold allodynia, Mean” value ([4]; dose 2.15 (mg/kg i.p.), 180 min) was −37.7 % MPE and the “inhibition of cold allodynia, Mean” value ([4]; dose 4.64 (mg/kg i.p.), 30 min) was 67.9 % MPE. The “inhibition of cold allodynia, Mean” value ([4]; dose 4.64 (mg/kg i.p.), 180 min) was 22.6 % MPE, the “inhibition of cold allodynia, Mean” value ([4]; dose 10 (first dose line of the table, i.p.), 30 min) was −28.9 % MPE and the “inhibition of cold allodynia, Mean” value ([4]; dose 10 (first dose line of the table, i.p.), 180 min) was −22.2 % MPE. For the same compound, the “inhibition of cold allodynia, Mean” value ([4]; dose 10 (fourth dose line of the table, mg/kg i.p.), 30 min) was 58.7 % MPE, the “inhibition of cold allodynia, Mean” value ([4]; dose 10 (fourth dose line of the table, mg/kg i.p.), 180 min) was 20.8 % MPE and the “inhibition of cold allodynia, Mean” value ([4]; dose 21.5 (mg/kg i.p.), 30 min) was 74.2 % MPE. The “inhibition of cold allodynia, Mean” value ([4]; dose 21.5 (mg/kg i.p.), 180 min) was 15.2 % MPE and the “minimally active dose at which a statistically significant inhibition was obtained” value ([4]; i.p., polyneuropathic pain model) was 4.64 mg/kg.
In the case of COc1ccc2c(c1)[C@]13CCCC[C@@H]1[C@H](C2)N(C)CC3 [Oextromethorphan], the “NNT (Numbers Needed to Treat)” value [1] is listed as 1.9.
